# Measured values: paper PMC4014704, “β-Boomerang Antimicrobial and Antiendotoxic Peptides: Lipidation and Disulfide Bond Effects on Activity and Structure” (Pharmaceuticals, 2014)
# Peptide text beside a SMILES is read from it.
# Tests used:
# [1] = buffers
# Excerpt: (§1) In addition, incorporation of disulfide bridges in AMPs may stabilize conformations and enhance cationicity and hydrophobicity required for enhanced activity. […] Residue Ile10 was chosen for Cys replacement since this residue is located at the exposed face of the β-strand of the YI12WF structure (Figure 1).
# The solution conformations of YI13C, C4YI13C peptides were examined in free solution using two-dimensional ^1H-^1H NOESY and TOCSY experiments.
# [2] = Reverse phase HPLC retention time (hydrophobicity); format: physicochemical; parameters: unit not given beside the values; conditions: C18 column (300 Å pore size, 5 μm particle size), linear gradient acetonitrile/water, higher Rt taken as more hydrophobic
# Excerpt: Materials: LPS of E. coli 0111:B4, FITC-LPS of E. coli 055:B5, acrylamide, NPN (1-N-phenylnaphthylamine) were purchased from Sigma (Saint Louis, MO, USA). All bacterial strains were obtained from the American Type Culture Collection (Manassas, VA, USA). Designed peptides were synthesized commercially by GL Biochem (Shanghai, China) and further purified by a reverse phase HPLC (Waters), using a C18 column (300 Å pore size, 5 μm particle size). The dimeric variants of β-boomerang lipopeptides were treated with 20% DMSO for 18 hours and the oxidized peptides were further purified by HPLC. A linear gradient of acetonitrile/water mixture was used for the purification and fractions eluting with higher purity were collected and freeze-dried.
# as §1
# B.subtilis (Lab strain) = assay: Antibacterial assay (MIC); format: cell-based; conditions: 10 mM phosphate buffer pH 6.8, 3 h 37 °C, streaked on Mueller-Hinton agar
# Method: (§2) Antibacterial assay: The minimum inhibitory concentration (MIC) of the designed peptides was determined against four Gram-negative strains (E. coli, P. aeruginosa ATCC 27853, K. pneumoniae ATCC 13883, S. enterica ATCC 14028) and four Gram-positive strains (B. subtilis, S. aureus ATCC 25923, S. pyogenes ATCC 19615 and E. faecalis ATCC 29212). In brief, mid logarithmic phase of overnight grown bacterial cultures were obtained in LB broth and adjusted to OD600 0.2 in 10 mM phosphate buffer, pH 6.8. About 50 μL of these cells were added to equal volume of designed peptides at two-fold dilutions in 96-well sterile polypropylene plates followed by incubation for 3hrs at 37 °C. Aliquots of the above titrated wells were streaked onto Mueller-Hinton agar plates and the concentration at which no visible bacterial growth was observed considered as the MIC value of the peptide.
# E.coli (Lab strain) = assay: Antibacterial assay (MIC); format: cell-based; conditions: 10 mM phosphate buffer pH 6.8, 3 h 37 °C, streaked on Mueller-Hinton agar, no visible growth
# Method: as §2
# E.faecalis (ATCC 29212) = assay: Antibacterial assay (MIC); format: cell-based; conditions: 10 mM phosphate buffer pH 6.8, 3 h 37 °C, streaked on Mueller-Hinton agar
# Method: as §2
# [3] = test system: K. pneumoniae (ATCC 13883); assay: Antibacterial assay (MIC); format: cell-based; conditions: 10 mM phosphate buffer pH 6.8, 3 h 37 °C, streaked on Mueller-Hinton agar
# Method: as §2
# [4] = test system: P.aeruginosa (ATCC 27853); assay: Antibacterial assay (MIC); format: cell-based; conditions: 10 mM phosphate buffer pH 6.8, 3 h 37 °C, streaked on Mueller-Hinton agar
# Method: as §2
# S.aureus (ATCC 25923) = assay: Antibacterial assay (MIC); format: cell-based; conditions: 10 mM phosphate buffer pH 6.8, 3 h 37 °C, streaked on Mueller-Hinton agar
# Method: as §2
# S.enterica (ATCC 14028) = assay: Antibacterial assay (MIC); format: cell-based; conditions: 10 mM phosphate buffer pH 6.8, 3 h 37 °C, streaked on Mueller-Hinton agar
# Method: as §2
# S.pyogenes (ATCC 19615) = assay: Antibacterial assay (MIC); format: cell-based; conditions: 10 mM phosphate buffer pH 6.8, 3 h 37 °C, streaked on Mueller-Hinton agar
# Method: as §2
# red blood cells = conditions: mouse RBC ~4% (v/v) in PBS pH 7.0, 1 h, OD540, 1% Triton-X = positive control
# Method: Hemolytic assay: Blood was collected from healthy mice in a tube containing EDTA. Cells with EDTA were centrifuged at 800 g for 10 min, to remove the buffy plasma coat layer, and washed three times in PBS (35 mM phosphate buffer, 150 mM NaCl, pH 7.0). 50 μL of RBC solution was added to equal volume of two-fold dilution of the peptides in 96-well micro titer plates and incubated for one hour. The final erythrocyte concentration estimated to be ~4% (v/v). After one hour, the mixture was centrifuged and the release of hemoglobin in the supernatant was determined spectrophotometrically at OD540. Buffer and 1% Triton-X in the place of peptides used as negative control and positive control, respectively. The percentage of hemolysis was calculated using the following method: Percentage of hemolysis = (OD peptide − OD buffer)/(OD Triton-X-OD buffer) × 100
# LPS (endotoxin) = assay: LPS neutralization assay (chromogenic LAL kit); format: biochemical; conditions: 10 μM peptide concentration
# Method: LPS neutralization assay: LAL chromogenic kit (QCL 100 Cambrex, Walkersville, MD, USA) was used to determine endotoxin neutralization of the designed peptides following protocol of the vendor. LPS in Gram negative bacteria activates a proenzyme in limulus amoebocyte lysate (LAL). This activated enzyme in turn catalytically release a colored product pNA from the colorless substrate Ac-Ile-Glu-Ala-Arg-pNA which is detected spectrophotometrically at OD410. All peptides were dissolved in the pyrogen-free water supplied with the kit and pH was adjusted to 7.0 with 1N HCl or 1N NaOH (which is prepared in pyrogen-free water). The increasing concentrations of the peptides were incubated with three different concentrations of endotoxins, i.e., at 0.4, 0.8 and 1.0 endotoxin units (EU) in a total volume of 50 μL for 30 minutes at 37 °C. About 50 μL of LAL reagent was added to peptide-LPS complex and further incubated for 10 minutes followed by addition of 100 μL substrate. After incubation of six minutes for the reaction, the release of colored product was recorded at OD410. Water in the place of peptides served as negative control (blank) that is considered as 0% inhibition and percentage of LPS neutralization was calculated by: % of LPS neutralization = [(OD blank − OD peptide)/OD blank] × 100
# LPS micelles [5] = assay: Dynamic light scattering of LPS micelles; parameters: species or system E. coli 0111:B4; conditions: DLS, 0.5 μM LPS, LPS:peptide 1:4; LPS alone 814 nm
# Method: Dynamic light scattering measurements: LPS forms micelles of large sizes, which with the addition of increasing concentration of peptides, dissociates to smaller sizes. DLS measurements were made for 0.5 μM LPS and then with LPS: Peptide ratios of 1:2 and 1:4. The scattering was measured with Dynamic Light Scattering software provided with the instrument (Brookhaven Instruments Corp., Holtsville, NY, USA) and the scattering data was analyzed with CONTIN method.
# LPS micelles [6] = assay: Isothermal titration calorimetry; format: binding, E. coli 0111:B4; conditions: ITC
# Method: Isothermal titration calorimetry: Binding of designed peptides with LPS micelles was determined using isothermal titration calorimetry in VP-ITC micro calorimeter (Microcal Inc, Northampton, MA, USA). Peptides and LPS samples were dissolved in 10 mM phosphate buffer, pH 7.0 and filtered. LPS at a concentration of 10 μM was loaded into the sample cell and the reference cell was filled with the same buffer. The syringe was filled with 1mM peptide solution. Typically 30 injections of 3.5 μL of the peptides were made into the sample cell at 25 °C. Sample cell was stirred continuously at 300 rpm. Raw data were obtained and analyzed using single site binding model in Microcal Origin 5.0 software. Association constant (Ka) and enthalpy change (ΔH) were directly determined from ITC profiles. Dissociation constant was calculated from Kd = 1/Ka. ΔG and TΔS were estimated from the fundamental equations of thermodynamics, ΔG = −RTlnKa and TΔS = (ΔH − ΔG), respectively.
smiles,measurement,setting,value
"CCCC(=O)N[C@@H](Cc1ccc(O)cc1)C(=O)N[C@H](C(=O)N[C@@H](CC(C)C)C(=O)N[C@@H](Cc1c[nH]c2ccccc12)C(=O)N[C@@H](CCCCN)C(=O)N[C@@H](CCCNC(=N)N)C(=O)N[C@@H](CCCCN)C(=O)N[C@@H](CCCNC(=N)N)C(=O)N[C@@H](Cc1ccccc1)C(=O)N[C@@H](CSSC[C@H](NC(=O)[C@H](Cc1ccccc1)NC(=O)[C@H](CCCNC(=N)N)NC(=O)[C@H](CCCCN)NC(=O)[C@H](CCCNC(=N)N)NC(=O)[C@H](CCCCN)NC(=O)[C@H](Cc1c[nH]c2ccccc12)NC(=O)[C@H](CC(C)C)NC(=O)[C@@H](NC(=O)[C@H](Cc1ccc(O)cc1)NC(=O)CCC)C(C)C)C(=O)N[C@@H](Cc1ccccc1)C(=O)N[C@H](C(N)=O)[C@@H](C)CC)C(=O)N[C@@H](Cc1ccccc1)C(=O)N[C@H](C(N)=O)[C@@H](C)CC)C(C)C [C4YI12WFC] (HELM PEPTIDE1{[CCCC(=O)[*:2]].Y.V.L.W.K.R.K.R.F.C.F.I.[am]}|PEPTIDE2{[CCCC(=O)[*:2]].Y.V.L.W.K.R.K.R.F.C.F.I.[am]}$PEPTIDE1,PEPTIDE2,11:R3-11:R3$$$V2.0)",Solubility in buffers (in words),[1],remained insoluble in buffers
CCCC(=O)N[C@@H](Cc1ccc(O)cc1)C(=O)N[C@H](C(=O)N[C@@H](CC(C)C)C(=O)N[C@@H](Cc1c[nH]c2ccccc12)C(=O)N[C@@H](CCCCN)C(=O)N[C@@H](CCCNC(=N)N)C(=O)N[C@@H](CCCCN)C(=O)N[C@@H](CCCNC(=N)N)C(=O)N[C@@H](Cc1ccccc1)C(=O)N[C@H](C(=O)N[C@@H](Cc1ccccc1)C(=O)N[C@H](C(N)=O)[C@@H](C)CC)[C@@H](C)CC)C(C)C [C4YI12WF] (HELM PEPTIDE1{[CCCC(=O)[*:2]].Y.V.L.W.K.R.K.R.F.I.F.I.[am]}$$$$V2.0),Solubility in buffers (in words),[1],remained insoluble in buffers
"CCCCCCCC(=O)N[C@@H](Cc1ccc(O)cc1)C(=O)N[C@H](C(=O)N[C@@H](CC(C)C)C(=O)N[C@@H](Cc1c[nH]c2ccccc12)C(=O)N[C@@H](CCCCN)C(=O)N[C@@H](CCCNC(=N)N)C(=O)N[C@@H](CCCCN)C(=O)N[C@@H](CCCNC(=N)N)C(=O)N[C@@H](Cc1ccccc1)C(=O)N[C@@H](CSSC[C@H](NC(=O)[C@H](Cc1ccccc1)NC(=O)[C@H](CCCNC(=N)N)NC(=O)[C@H](CCCCN)NC(=O)[C@H](CCCNC(=N)N)NC(=O)[C@H](CCCCN)NC(=O)[C@H](Cc1c[nH]c2ccccc12)NC(=O)[C@H](CC(C)C)NC(=O)[C@@H](NC(=O)[C@H](Cc1ccc(O)cc1)NC(=O)CCCCCCC)C(C)C)C(=O)N[C@@H](Cc1ccccc1)C(=O)N[C@H](C(N)=O)[C@@H](C)CC)C(=O)N[C@@H](Cc1ccccc1)C(=O)N[C@H](C(N)=O)[C@@H](C)CC)C(C)C [C8YI12WFC] (HELM PEPTIDE1{[CCCCCCCC(=O)[*:2]].Y.V.L.W.K.R.K.R.F.C.F.I.[am]}|PEPTIDE2{[CCCCCCCC(=O)[*:2]].Y.V.L.W.K.R.K.R.F.C.F.I.[am]}$PEPTIDE1,PEPTIDE2,11:R3-11:R3$$$V2.0)",Solubility in buffers (in words),[1],remained insoluble in buffers
CCCCCCCC(=O)N[C@@H](Cc1ccc(O)cc1)C(=O)N[C@H](C(=O)N[C@@H](CC(C)C)C(=O)N[C@@H](Cc1c[nH]c2ccccc12)C(=O)N[C@@H](CCCCN)C(=O)N[C@@H](CCCNC(=N)N)C(=O)N[C@@H](CCCCN)C(=O)N[C@@H](CCCNC(=N)N)C(=O)N[C@@H](Cc1ccccc1)C(=O)N[C@H](C(=O)N[C@@H](Cc1ccccc1)C(=O)N[C@H](C(N)=O)[C@@H](C)CC)[C@@H](C)CC)C(C)C [C8YI12WF] (HELM PEPTIDE1{[CCCCCCCC(=O)[*:2]].Y.V.L.W.K.R.K.R.F.I.F.I.[am]}$$$$V2.0),Solubility in buffers (in words),[1],remained insoluble in buffers
"CC[C@H](C)[C@H](NC(=O)[C@H](Cc1ccccc1)NC(=O)[C@H](CSSC[C@H](NC(=O)[C@H](Cc1ccccc1)NC(=O)[C@H](CCCCN)NC(=O)[C@H](CCCNC(=N)N)NC(=O)[C@H](CCCCN)NC(=O)[C@H](CCCNC(=N)N)NC(=O)[C@H](CCCCN)NC(=O)[C@H](Cc1c[nH]c2ccccc12)NC(=O)[C@H](CC(C)C)NC(=O)[C@@H](NC(=O)[C@@H](N)Cc1ccc(O)cc1)C(C)C)C(=O)N[C@@H](Cc1ccccc1)C(=O)N[C@H](C(N)=O)[C@@H](C)CC)NC(=O)[C@H](Cc1ccccc1)NC(=O)[C@H](CCCCN)NC(=O)[C@H](CCCNC(=N)N)NC(=O)[C@H](CCCCN)NC(=O)[C@H](CCCNC(=N)N)NC(=O)[C@H](CCCCN)NC(=O)[C@H](Cc1c[nH]c2ccccc12)NC(=O)[C@H](CC(C)C)NC(=O)[C@@H](NC(=O)[C@@H](N)Cc1ccc(O)cc1)C(C)C)C(N)=O [YI13C] (HELM PEPTIDE1{Y.V.L.W.K.R.K.R.K.F.C.F.I.[am]}|PEPTIDE2{Y.V.L.W.K.R.K.R.K.F.C.F.I.[am]}$PEPTIDE1,PEPTIDE2,11:R3-11:R3$$$V2.0)",Retention time (Rt),[2],27.48
same,Minimum inhibitory concentration (MIC),B.subtilis (Lab strain),20 µM
same,Minimum inhibitory concentration (MIC),E.coli (Lab strain),12.5 µM
same,Minimum inhibitory concentration (MIC),E.faecalis (ATCC 29212),50 µM
same,Minimum inhibitory concentration (MIC),[3],25 µM
same,Minimum inhibitory concentration (MIC),[4],20 µM
same,Minimum inhibitory concentration (MIC),S.aureus (ATCC 25923),20 µM
same,Minimum inhibitory concentration (MIC),S.enterica (ATCC 14028),50 µM
same,Minimum inhibitory concentration (MIC),S.pyogenes (ATCC 19615),50 µM
same,% of hemolysis at 50 μM peptide concentration,red blood cells,21.5%
same,LPS neutralization (in words),LPS (endotoxin),neutralization activity equal to acylated analogs
same,Diameter of LPS aggregates,LPS micelles [5],291 nm
same,Ka,"LPS micelles [6]; 1 mM peptide into 10 μM LPS, 10 mM phosphate buffer pH 7.0, 25 °C, single site binding model",4.2 µM⁻¹
same,Kd,"LPS micelles [6]; LPS micelles, pH 7.0, 25 °C, Kd = 1/Ka",0.23 µM
